Results published in PubChem BioAssay (NCI).
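Step 1: Grow cells in 96-well plates. Step 2: Expose to compound for 48 hours at 5 concentrations. Step 3: Interpolate endpoints linearly; if unreached, use highest concentration. At the GI50, growth is halved. TGI: concentration producing complete growth inhibition.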

Tests used:
Assay in all cases: inhibition of tumour cell growth, NCI panel, 48 h
[1] = system: NCI-H460 lung
[2] = system: CCRF-CEM leukemia
[3] = system: LOX IMVI melanoma
[4] = system: MDA-MB-435
[5] = system: SF-539 CNS
[6] = system: HL-60(TB) leukemia
[7] = system: 786-0 renal
[8] = system: HCT-15 colon
[9] = system: SK-OV-3 ovarian
[10] = system: NCI-H23 lung

SMILES	GI50 [1] [µM]	TGI [1] [µM]	GI50 [2] [µM]	TGI [2] [µM]	GI50 [3] [µM]	TGI [3] [µM]	GI50 [4] [µM]	TGI [4] [µM]	GI50 [5] [µM]	TGI [5] [µM]	GI50 [6] [µM]	TGI [6] [µM]	GI50 [7] [µM]	TGI [7] [µM]	GI50 [8] [µM]	TGI [8] [µM]	GI50 [9] [µM]	TGI [9] [µM]	GI50 [10] [µM]	TGI [10] [µM]
CCC[CH2][Sn]1([CH2]CCC)[O]C(=O)c2cccc([N+](=O)[O-])c2C(=O)[O]1	1.66	3.57	0.0617	0.683	0.259	0.7	0.594	1.91	0.497	1.73	0.206	1.35	0.724	1.99	0.3	1.31	1.69	3.07	0.301	1.19
CC1=CC(C)=N/C(=N/S(=O)(=O)c2cc(C)c(Cl)cc2SCc2ccccc2)NN1	> 100	> 100	> 100	> 100	> 100	> 100	> 100	> 100	81.1	> 100	> 100	> 100	> 100	> 100	> 100	> 100	> 100	> 100	> 100	> 100
Clc1ccc2c(NC3CCC(N4CCCCC4)CC3)ccnc2c1 (centres undefined)	–	33.2	–	> 100	–	33	–	28.5	–	36.2	–	43.5	–	41.7	–	> 100	–	> 100	–	> 100
CCOC(=O)C1=C(Nc2ccc(OC)cc2)C(N)=NC1=N	3.73	> 100	3.24	> 100	5.47	> 100	0.336	1.5	2.15	6.27	3.51	> 100	5.04	> 100	1.83	> 100	2.99	18.1	4.84	> 100
Cc1nnc(N/N=C/c2ccc([N+](=O)[O-])o2)[nH]c1=O	3.19	14.6	0.441	–	0.659	> 100	0.908	> 100	0.447	> 51.6	2.5	> 100	0.649	15.3	1.86	> 100	3.77	> 93.5	1.37	> 100
CCN(CC)CCOc1nc2ccccc2c2c1-c1ccc(OC)cc1C2=O	0.317	1.3	0.267	2.23	0.432	1.81	0.881	2.36	1.34	4.25	0.395	1.85	1.17	2.68	0.472	4.82	2.48	> 36.6	1.27	4.07
Cc1[nH]nc(C(F)(F)F)c1Cc1sc2c(c1C(=O)N1C[C@](C)(O)CO1)c(=O)n(C)c(=O)n2C(C)C	> 100	> 100	> 100	> 100	> 100	> 100	> 100	> 100	> 100	> 100	> 100	> 100	> 100	> 100	> 100	> 100	> 100	> 100	> 100	> 100
Cc1cc(OCc2ccc(C(F)(F)F)cc2)c2c(c1)C(=O)C=C(NCCN1CCCC1)C2=O	1.84	3.43	2.48	7.12	1.92	3.55	1.62	3.02	1.68	3.24	1.71	4.08	1.6	2.99	1.95	4.82	3.45	10.6	4.92	18.7
Cc1cc(N(CCC#N)S(=O)(=O)c2ccccc2)ccc1C=Nc1ccc(C(=O)O)cc1	–	29.9	–	> 26.5	–	25.5	–	> 100	–	30.7	–	> 21.3	–	16.1	–	13.7	–	48.9	–	33.9
COc1cc(OC)c(/C=C/C(=O)c2c(OC)cc(OC)cc2OC)c(OC)c1	0.976	7.74	0.876	> 100	0.782	4.54	0.235	0.694	1.27	3.31	0.637	9.44	2.02	> 74.7	0.458	33.4	2.66	25.9	1.35	6.67
